Here are results for four compounds from publication PMC9154793, “Design, synthesis, and biological evaluation of triazole-pyrimidine-methylbenzonitrile derivatives as dual A2A/A2B adenosine receptor antagonists” (Journal of Enzyme Inhibition and Medicinal Chemistry, 2022).

Read-outs that look alike come from different tables or passages of the source.

Data set [1] concerns the target T1, human A2A AR (Homo sapiens, UniProt P29274). As to the kind of experiment: A2A AR radioligand binding assay ([3H]-ZM241385, HEK-293 cell membranes). On the procedure: We further tested the IC50 values of compounds 7f, 7i, 17, 22, and AB928 in inhibiting the cAMP production of CHO cells expressing hA2A AR or hA2B AR (Table 2). […] In addition, the competitive binding experiments of compounds 7f, 7i, and AB928 were performed using membrane preparation of HEK-293 cells expressing human A2A AR (Table 3).
The target compounds were tested to evaluate their affinity for the A2A AR on HEK-293 cell membranes expressing human A2A AR. [^3H]-ZM241385 was used as a radioligand. The assay buffer (50 mM Tris-HCl, pH 7.4; 10 mM MgCl2; 1 mM EDTA; 1 μg/ml adenosine deaminase), wash buffer (50 mM Tris-HCl, pH 7.4; 154 mM NaCl), and 0.5% PEI solution were prepared and stored at 4 °C for use. The affinities were tested following the procedure reported by Hu et al[4].

In data set [2] the target is T1, human A2A AR. As to the kind of experiment: cAMP functional assay in CHO-K1/ADORA2A/Gα15 cells (NECA-stimulated, HTRF).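 For all read-outs here: inhibition of NECA-driven intracellular cAMP build-up in the A2A-expressing cells, quantified with cAMP-d2 plus Eu3+-labelled anti-cAMP detection reagent.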 It is filed as cell-based. Conditions: for fold less active than compound 7i (cAMP IC50, A2A receptor): ratio of cAMP IC50 values vs 7i. Background: Time-resolved FRET reads energy transfer from a long-lived donor to a nearby acceptor.
Experimental: (§16) In the cAMP assay, CHO-K1/ADORA2A/Gα15 cells expressing human A2A AR and CHO-K1/ADORA2b/Gα15 cells expressing human A2B AR were activated by 5′-(N-ethylcarboxamido)adenosine (NECA) and triggered the accumulation of intracellular cAMP concentration.
(§17) CHO-K1/ADORA2A/Gα15 cells expressing human A2A AR and CHO-K1/ADORA2b/Gα15 cells expressing human A2B AR were both constructed by Genscript Biotech Corporation. […] The test stock solutions were diluted with different gradients for use. The procedure was exemplified by the cAMP functional assay on the A2A receptor: 10,000 cells/well of CHO-K1/ADORA2A/Gα15 were seeded in a 384-well plate in 20 μl of assay buffer. […] Then, 10 μl of detection reagent (cAMP-d2 and anti-cAMP-Eu3+) was added into each well of the plate and incubated at room temperature for 1 h.
Data set [3] can be described thus: Metabolic stability in rat liver microsomes. Format: in vitro ADME, Sprague–Dawley rats. On the procedure: (§1) The metabolic stability is an important focus for further compound optimisation. Compounds 7f, 7i, and AB928 were chosen to evaluate the stability in rat liver microsomes and human liver microsomes. For the microsomal metabolic experiment, 7-ethoxycoumarin (7-EC) was used as a control. As shown in Table 4 (see Supporting information for raw data), the CLint(liver) of 7-EC in rats and humans was 10.0 and 9.0 ml/min/g liver, respectively, indicating the experimental test system was reliable.
(§2) Metabolic stabilities of compounds 7f, 7i, and AB928 in liver microsomes were studied with pooled human (male) liver microsomes solution (20 mg/ml) and male Sprague–Dawley rats pooled liver microsomes solution (20 mg/ml) purchased from Research Institute for Liver Diseases (Shanghai) Co. Ltd. Both liver microsomes solutions (140 μl) were diluted by 3948 μl of water and 280 μl of phosphate buffered saline. The assay procedure: 640 μl of diluted liver microsomes solution was added to a solution of compound working solution (16 μl, 25 μM in DMSO) and the mixed solution was incubated at 37 °C for 5 min. Then 160 μl of NADPH generating system was added and take out 100 μl from the mixed solution was added 200 μl of acetonitrile solution to stop the reaction at the set incubation time (0 min, 10 min, 20 min, 30 min, 40 min, 50 min, and 60 min). All stopped reaction solutions were vortex mixed (3 min) and centrifuged (10,000 rpm, 4 °C for 10 min). Then 50 μl of the supernatant was analysed by UPLC-MS/MS system (details of the analytical method see Supporting information). […]
(§3) 8. Metabolic stability in human and rat liver microsomes
(§4) Metabolic stabilities of compounds 7f, 7i and AB928 in liver microsomes were studied with pooled human (male) liver microsomes solution (20 mg/mL) and male Sprague - Dawley rats pooled liver microsomes solution (20 mg/mL) purchased from Research Institute for Liver Diseases (Shanghai) Co. Ltd. Both liver microsomes solutions (140 μL) were diluted by 3948 μL of water and 280 μL of phosphate buffered saline. The assay procedure: 640 μL of diluted liver microsomes solution was added to a solution of compound working solution (16 μL, 25 μM in DMSO) and the mixed solution was […]
(§5) (1 picture or pasted object on this page, not shown here) […]
(§6) incubated at 37 ℃ for 5 min. Then 160 μL of NADPH generating system was added and take out 100 μL from the mixed solution was added 200 μL of acetonitrile solution to stop the reaction at the set incubation time (0 min, 10 min, 20 min, 30 min, 40 min, 50 min, and 60 min). All stopped reaction solutions were vortex mixed (3 min) and centrifuged (10000 rpm, 4 ℃ for 10 min). Then 50 μL of the supernatant was analyzed […]
(§7) 8.2 Chromatography and mass spectrometry conditions
(§8) UPLC was performed using an […] UPLC system (Waters, Milford, MA, […]
(§9) USA). Separation was achieved on a Waters BEH C18 column(100 mm × 2.1 mm， 1.7 μm) at 40 ℃. The injection volume of the sample solution was 5 μL. The mobile phase consisted of water (0.1% formic acid and ammonium acetate) and acetonitrile solution (20:80, v/v) at a flow rate of 0.4 mL/min within a running time of 6 min. Mass spectrometric analysis was performed on a Waters Xevo TQ-S triple quadrupole instrument using electrospray ionization in positive mode. Quantification was performed using multiple reaction monitoring (MRM) mode to monitor precursor-product ion transitions (Table S1).
(§10) Table S1. Conditions of MRM Detection. […]
(§11) Table S2. Raw data of metabolic stability in human and rat liver microsomes. […]
(§12) (min) Hum Rat Hum Rat Hum Rat Hum Rat
(§13) 9. Analytical method of pharmacokinetics assay
(§14) Animal experiments were performed according to the institutional ethical guidelines on animal care and approved by the Institute Animal Care and Use Committee at Binzhou […]
(§15) Female Bal b/c mice (sourced from Jinan Pengyue Experimental Animal Breeding […]
On the technique in general: Microsomes from liver hold many membrane-bound enzymes, among them those of drug oxidation.

Another data set concerns the target T2, human A2B AR (Homo sapiens, UniProt P29275).
T2 sequence (P29275 1-332): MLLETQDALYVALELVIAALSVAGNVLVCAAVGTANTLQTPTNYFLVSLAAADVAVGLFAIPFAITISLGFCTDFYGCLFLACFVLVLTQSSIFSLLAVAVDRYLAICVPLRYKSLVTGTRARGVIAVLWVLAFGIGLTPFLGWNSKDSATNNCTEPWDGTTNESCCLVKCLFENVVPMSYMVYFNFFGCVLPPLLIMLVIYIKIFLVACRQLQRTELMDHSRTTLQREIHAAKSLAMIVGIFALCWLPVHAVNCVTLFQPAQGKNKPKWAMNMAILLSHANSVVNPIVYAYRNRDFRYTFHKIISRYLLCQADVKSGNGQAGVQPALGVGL
As to the kind of experiment: cAMP functional assay in CHO-K1/ADORA2b/Gα15 cells (NECA-stimulated, HTRF). It is filed as cell-based.

Data set [4] in a line: Metabolic stability in human liver microsomes. Format: in vitro ADME. Conditions: human, microsomes. The protocol: as §1, §2, §3, §4, §5, §6, §7, §8, §9, §10, §11, §12, §13, §14, §15
[5] abbreviates: CHO-K1, compound at 10 nM, relative to ZM241385 at 1 μM, mean ± SEM, read-out: hA2A AR (%) inhibition of cAMP, 10 nM.
Setting [6] is: CHO-K1, compound at 100 nM, relative to ZM241385 at 1 μM, mean ± SEM, read-out: hA2A AR (%) inhibition of cAMP, 100 nM.
Setting [7] is: CHO-K1, compound at 1000 nM, relative to ZM241385 at 1 μM, mean ± SEM, read-out: hA2A AR (%) inhibition of cAMP, 1000 nM.
[8] abbreviates: CHO-K1, compound at 100 nM, relative to ZM241385 at 1 μM, mean ± SEM, read-out: hA2B AR (%) inhibition of cAMP, 100 nM.
Where [9] appears, read: CHO cells expressing hA2A AR, mean ± SEM, read-out: cAMP IC50 hA2A AR.
Where [10] appears, read: CHO cells expressing hA2B AR, mean ± SEM, read-out: cAMP IC50 hA2B AR.

T1 sequence (P29274 whole entry): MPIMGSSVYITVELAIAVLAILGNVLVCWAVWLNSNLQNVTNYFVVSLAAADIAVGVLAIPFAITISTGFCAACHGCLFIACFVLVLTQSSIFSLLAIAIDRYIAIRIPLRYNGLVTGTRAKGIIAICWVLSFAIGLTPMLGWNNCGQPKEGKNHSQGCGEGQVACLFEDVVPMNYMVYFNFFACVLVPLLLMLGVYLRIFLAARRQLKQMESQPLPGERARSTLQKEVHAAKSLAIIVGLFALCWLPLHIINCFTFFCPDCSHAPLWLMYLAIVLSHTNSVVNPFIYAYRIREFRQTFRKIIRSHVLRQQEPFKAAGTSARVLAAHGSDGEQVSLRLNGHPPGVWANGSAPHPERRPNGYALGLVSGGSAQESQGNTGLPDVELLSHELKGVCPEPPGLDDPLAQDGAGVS
Experimental for human A2B AR: as §16, §17

For orientation: IC50 means the concentration needed to halve the response being measured. By inhibition is commonly meant the change of the read-out against control, counted positive when it falls. Regarding `Cc1c(C#N)cccc1-c1cc(-c2cn(Cc3cccc(C(C)(C)O)n3)nn2)nc(N)n1` [AB928, reference compound], the IC50 on human A2A AR [1] worked out at 25.2 ± 0.74 nM; at human A2A AR [2], 2.75 ± 0.12 nM; on human A2B AR it was 25.5 ± 0.35 nM. In addition, the inhibition at 0.01 µM on human A2A AR [2] (CHO-K1, read-out: hA2A AR (%) inhibition of cAMP, 10 nM) was 20 ± 6.46%. Moreover, the inhibition at 0.1 µM amounted to 96.8 ± 7.16% on human A2A AR [2] (CHO-K1, read-out: hA2A AR (%) inhibition of cAMP, 100 nM) and 103 ± 1.04% on human A2B AR (CHO-K1, read-out: hA2B AR (%) inhibition of cAMP, 100 nM). In addition, on human A2A AR [2] (CHO-K1, read-out: hA2A AR (%) inhibition of cAMP, 1000 nM), the inhibition at 1 µM was 101 ± 5.55%. Also, the amount remaining at 10 min, 0.49 µM in data set [3] (male, Sprague-Dawley, pooled rat liver microsomes, rat liver microsomes, 10 min) is 74.7%; in data set [4] (male) it was 96.2%. Moreover, the fraction remaining at 20 min, 0.49 µM in data set [3] (male, Sprague-Dawley, pooled rat liver microsomes, rat liver microsomes, 20 min) was 67.4%; in data set [4] (male) it was 104%. For the same compound, the share remaining at 0.5 h, 0.49 µM in data set [3] (male, Sprague-Dawley, pooled rat liver microsomes, rat liver microsomes, 30 min) was determined as 53.1%; in data set [4] (male), 97%. In addition, the share remaining at 40 min, 0.49 µM in data set [3] (male, Sprague-Dawley, pooled rat liver microsomes, rat liver microsomes, 40 min) turned out to be 42.8%; in data set [4] (male), 91.8%. In addition, the share remaining at 50 min, 0.49 µM was determined as 35.6% in data set [3] (male, Sprague-Dawley, pooled rat liver microsomes, rat liver microsomes, 50 min) and 89% in data set [4] (male). Also, the amount remaining at 1 h, 0.49 µM in data set [3] (male, Sprague-Dawley, pooled rat liver microsomes, rat liver microsomes, 60 min, read-out: Remaining (%, T = 60min) Rat) amounted to 28.1%; in data set [4] (male), 94.4%. Also, the half-life at 0.49 µM in data set [3] (male, Sprague-Dawley, rat, pooled rat liver microsomes, read-out: T1/2 Rat) is 0.563 h; in data set [4] (male), 7.22 h. Also, in data set [3] (rat liver microsomes), the “CLint(liver) Rat” value came to 2.15 mL/min/g. In data set [4], the “CLint(liver) Hum” value amounted to 0.17 mL/min/g.

As a reminder, the melting point is the temperature, or range, at which the solid turns liquid. As to `COc1ccc(Cn2cc(-c3cc(-c4cccc(C#N)c4C)nc(N)n3)nn2)cc1` [Compound 7n, 3-(2-Amino-6-(1-(4-methoxybenzyl)-1H-1,2,3-triazol-4-yl)pyrimidin-4-yl)-2-methylbenzonitrile], the melting point was in the range of 149 to 150 °C. The inhibition at 0.01 µM on human A2A AR [2] (setting [5]) was 18.8 ± 3.88%. For the same compound, on human A2A AR [2] (setting [6]), the inhibition at 0.1 µM was determined as 29.8 ± 0.38%. Moreover, the inhibition at 1 µM at human A2A AR [2] (setting [7]) worked out at 54.8 ± 2.41%. The inhibition at 0.1 µM on human A2B AR (setting [8]) came out at 63.5 ± 4.93%.

The compound `Cc1ccc(-c2cc(-c3cn(Cc4cccc(C(C)(C)O)n4)nn3)nc(N)n2)o1` [Compound 17, 2-(6-((4-(2-Amino-6-(5-methylfuran-2-yl)pyrimidin-4-yl)-1H-1,2,3-triazol-1-yl)methyl)pyridin-2-yl)propan-2-ol] had a melting point of 188 to 189 °C. At human A2A AR [2] (setting [9]), the IC50 stood at 321 ± 94 nM. Besides, the inhibition at 0.01 µM on human A2A AR [2] (setting [5]) was 17.6 ± 2.78%. Besides, on human A2A AR [2] (setting [6]), the inhibition at 0.1 µM was 92.28 ± 0.61%. Also, at human A2A AR [2] (setting [7]), the inhibition at 1 µM was 92.7 ± 2.87%. The “fold less active than compound 7i (cAMP IC50, A2A receptor)” value on human A2A AR [2] is on record as 52 fold. The IC50 at human A2B AR (setting [10]) worked out at 80 ± 13.4 nM. The inhibition at 0.1 µM on human A2B AR (setting [8]) came out at 64.4 ± 0.89%.

For the compound `CC(C)(O)c1cccc(Cn2cc(-c3cc(-c4cccc(CF)c4)nc(N)n3)nn2)n1` [Compound 22, 2-(6-((4-(2-amino-6-(3-(fluoromethyl)phenyl)pyrimidin-4-yl)-1H-1,2,3-triazol-1-yl)methyl)pyridin-2-yl)propan-2-ol], the melting point was 76 to 77 °C. Besides, the half-maximal inhibitory concentration (IC50) on human A2A AR [2] (setting [9]) is 67.2 ± 10.9 nM. For the same compound, the inhibition at 0.01 µM at human A2A AR [2] (setting [5]) worked out at 22.4 ± 11.9%. In addition, the inhibition at 0.1 µM at human A2A AR [2] (setting [6]) was found to be 94.7 ± 4.43%. Further, the inhibition at 1 µM at human A2A AR [2] (setting [7]) is 93.6 ± 2.76%. Moreover, the “fold less active than compound 7i (cAMP IC50, A2A receptor)” value on human A2A AR [2] is 11 fold. Besides, the IC50 on human A2B AR (setting [10]) was determined as 178 ± 9.89 nM. Besides, the inhibition at 0.1 µM on human A2B AR (setting [8]) was 19.9 ± 1.85%.
